Measured values: US20060058312A1, “Stabilized aqueous preparation for injection” (priority 2004, published 2006)

Test: Stability test at 60° C., addition amount of ascorbic acid at pH 8.7 (Example 5), HPLC content
Assay type: physicochemical
Conditions: for remaining calcium levofolinate content compared with the initial value (100): 60° C.
Protocol: For the aqueous preparations obtained in (1) to (3) above, tests evaluating stability at 60° C./3 weeks were performed. The calcium levofolinate content remaining in the aqueous solution was measured using high performance liquid chromatography under the following conditions (the same were employed in the following experiments) 2 ml each of the test preparations were weighed, and 10 ml of the internal standard solution described below (the same was employed in the following experiments) were added thereto. Subsequently, water was added to adjust the total volume of the solution to 50 ml, thereby to prepare a test solution. Meanwhile, 62.5 mg of calcium levofolinate were dissolved in water so as to prepare a 25 ml solution. Then, to 10 ml of the resultant solution were added 10 ml of the internal standard solution, and the total volume of the solution was adjusted to 50 ml by adding water, thereby to prepare a standard solution. For 20 μl of the standard solution and the test solution, the content of calcium levofolinate was measured by the liquid chromatography method under the following conditions.
1) Measurement Conditions • Detector: Ultraviolet absorptiometer (Measurement wavelength: 254 nm) • Column: A stainless tube having an internal diameter of 4.0 mm and a length of 15 cm was filled with 5 μm of octadecylsilylated silica gel for liquid chromatography. • Column temperature: A constant temperature near 45° C. • Mobile phase: The pH value of a mixed test solution containing 0.008 mol/L of disodium hydrogen phosphate solution/methanol/40% aqueous tetrabutylammonium hydroxide solution (385:110:1.3 (volume ratio)) was adjusted to 7.5 by adding phosphoric acid. • Flow rate: The flow rate was regulated so that the retention time of calcium levofolinate became about 10 minutes. • Internal standard solution: A solution prepared by adding water to 0.04 g of methyl parahydroxybenzoate so that the whole amount of solution is 100 ml.
About 80 ml of water for injection were added to a beaker (volume: 200 ml). Then, 0.56 g of sodium chloride, 0.3 g of tromethamine, and 1.375 g of calcium levofolinate (1.1 g, in terms of 5-formyl-(6S)-tetrahydrofolic acid) were added to it with bubbling of nitrogen gas, and the components were dissolved with stirring (this procedure was performed 5 times). Subsequently, 0.05 g, 0.075 g, 0.1 g, 0.2 g, or 0.3 g of ascorbic acid was added to each solution, and was dissolved with stirring, to prepare five solutions. Thereafter, in the case where the addition amount of ascorbic acid is 0.05 g, 0.075 g, or 0.1 g, the pH value of each solution was regulated to 8.7 by adding 5% hydrochloric acid. In the case where the addition amount of ascorbic acid is 0.2 g, or 0.3 g, the pH value of each solution was regulated to 8.7 by adding 1% aqueous sodium hydroxide solution dropwise. Water for injection was further added to each solution to adjust the total volume of the solution to 100 ml. Subsequently, the bubbling of nitrogen gas was stopped, and each solution was filtered with a filtration filter, thereby to yield a solution for injection. Subsequently, each of five 5 ml-glass ampules the inside space of which had been substituted by nitrogen gas, was filled with 5 ml of the resultant solution for injection, and was sealed by heating.
For each aqueous preparation obtained as above, a test evaluating stability at 60° C. was performed by measuring the remaining calcium levofolinate content by the high performance liquid chromatography method.

- remaining calcium levofolinate content compared with the initial value (100) (ascorbic acid 0.05%, 1 month): 84.5
- remaining calcium levofolinate content compared with the initial value (100) (ascorbic acid 0.05%, 1 week): 97.0
- remaining calcium levofolinate content compared with the initial value (100) (ascorbic acid 0.05%, 2 weeks): 92.1
- remaining calcium levofolinate content compared with the initial value (100) (ascorbic acid 0.05%, 3 weeks): 90.3
- calcium levofolinate content, Initial value (100) (ascorbic acid 0.05%): 100
- remaining calcium levofolinate content compared with the initial value (100) (ascorbic acid 0.075%, 1 month): 85.7
- remaining calcium levofolinate content compared with the initial value (100) (ascorbic acid 0.075%, 1 week): 97.1
- remaining calcium levofolinate content compared with the initial value (100) (ascorbic acid 0.075%, 2 weeks): 91.5
- remaining calcium levofolinate content compared with the initial value (100) (ascorbic acid 0.075%, 3 weeks): 90.9
- calcium levofolinate content, Initial value (100) (ascorbic acid 0.075%): 100
- remaining calcium levofolinate content compared with the initial value (100) (ascorbic acid 0.1%, 1 month): 84.9
- remaining calcium levofolinate content compared with the initial value (100) (ascorbic acid 0.1%, 1 week): 97.3
- remaining calcium levofolinate content compared with the initial value (100) (ascorbic acid 0.1%, 2 weeks): 92.2
- remaining calcium levofolinate content compared with the initial value (100) (ascorbic acid 0.1%, 3 weeks): 89.3
- calcium levofolinate content, Initial value (100) (ascorbic acid 0.1%): 100
- remaining calcium levofolinate content compared with the initial value (100) (ascorbic acid 0.2%, 1 month): 83.4
- remaining calcium levofolinate content compared with the initial value (100) (ascorbic acid 0.2%, 1 week): 96.6
- remaining calcium levofolinate content compared with the initial value (100) (ascorbic acid 0.2%, 2 weeks): 91.5
- remaining calcium levofolinate content compared with the initial value (100) (ascorbic acid 0.2%, 3 weeks): 88.6
- calcium levofolinate content, Initial value (100) (ascorbic acid 0.2%): 100
- remaining calcium levofolinate content compared with the initial value (100) (ascorbic acid 0.3%, 1 month): 82.0
- remaining calcium levofolinate content compared with the initial value (100) (ascorbic acid 0.3%, 1 week): 96.1
- remaining calcium levofolinate content compared with the initial value (100) (ascorbic acid 0.3%, 2 weeks): 90.5
- remaining calcium levofolinate content compared with the initial value (100) (ascorbic acid 0.3%, 3 weeks): 87.7
- calcium levofolinate content, Initial value (100) (ascorbic acid 0.3%): 100
Structure (SMILES): Nc1nc(=O)c2c([nH]1)NC[C@H](CNc1ccc(C(=O)N[C@@H](CCC(=O)O)C(=O)O)cc1)N2C=O [calcium levofolinate, (6S)-N-[4-[[(2-amino-5-formyl-1,4,5,6,7,8-hexahydro-4-oxo-6-pteridinyl)methyl]amino]benzoyl]-L-glutamic acid]
